Target: T1, recombinant Sirt6 enzyme (Homo sapiens, UniProt Q8N6T7)
T1 construct: purchased Cyclex CY-1156
Assay: CycLex Sirt6 deacetylase fluorometric assay (cat. CY-1156)
Format: biochemical
Conditions: 1 h, room temperature; for EC50: increase of Sirt6 deacetylase activity; for activity at 5 µM (stock): screening at 5uM, no test sample control = 100

T1 sequence (Q8N6T7 whole entry): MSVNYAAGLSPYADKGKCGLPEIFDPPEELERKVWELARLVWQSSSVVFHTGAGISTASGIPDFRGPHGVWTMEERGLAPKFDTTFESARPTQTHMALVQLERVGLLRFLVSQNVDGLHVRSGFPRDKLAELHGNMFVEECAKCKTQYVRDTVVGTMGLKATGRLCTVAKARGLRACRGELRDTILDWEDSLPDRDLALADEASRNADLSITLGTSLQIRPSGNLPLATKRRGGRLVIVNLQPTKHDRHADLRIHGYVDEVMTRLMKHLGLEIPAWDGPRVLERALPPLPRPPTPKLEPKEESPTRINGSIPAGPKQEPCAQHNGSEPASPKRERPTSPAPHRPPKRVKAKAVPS

EC50	activity at 5 µM (stock)	Compound
2.8 µM	≥ 200%	COc1ccc(-c2nnn3c2nc(NC(C)c2ccccc2)c2ccccc23)cc1 (stereo not shown) [화학식 2, 3-(4-methoxyphenyl)-N-(1-phenylethyl)-[1,2,3]triazolo[1,5-a]quinazolin-5-amine]
5 µM	≥ 200%	NNc1nc2c(-c3cccc(C(F)(F)F)c3)nnn2c2ccccc12 [화학식 1, 5-hydrazinyl-3-(3-(trifluoromethyl)phenyl)-[1,2,3]triazolo[1,5-a]quinazoline]

From patent KR20170082372A, “Sirt6의 활성 조절용 조성물” (한국화학연구원, priority 2016, dated 2017)
